Data on three compounds can be found in patent US20250292865A1, “DETERMINING BIOLOGICAL PARAMETERS OF A CELL” (THE UNIVERSITY OF BATH, priority 2022, published 2025).

One test has as its system A-type K+ ion channel. In words: Data assimilation of CA1 neuron current clamp recordings: predicted charge through A-type K+ channel before and after drug. The class given is cell-based, rodent.
The target of the next test is A-type [Kv1.4] (Homo sapiens, UniProt P22459). The following applies: 300 μM; A-type [Kv1.4] selectively expressed in xenopus oocytes; cited from earlier work.
Sequence of A-type [Kv1.4] (P22459 whole entry): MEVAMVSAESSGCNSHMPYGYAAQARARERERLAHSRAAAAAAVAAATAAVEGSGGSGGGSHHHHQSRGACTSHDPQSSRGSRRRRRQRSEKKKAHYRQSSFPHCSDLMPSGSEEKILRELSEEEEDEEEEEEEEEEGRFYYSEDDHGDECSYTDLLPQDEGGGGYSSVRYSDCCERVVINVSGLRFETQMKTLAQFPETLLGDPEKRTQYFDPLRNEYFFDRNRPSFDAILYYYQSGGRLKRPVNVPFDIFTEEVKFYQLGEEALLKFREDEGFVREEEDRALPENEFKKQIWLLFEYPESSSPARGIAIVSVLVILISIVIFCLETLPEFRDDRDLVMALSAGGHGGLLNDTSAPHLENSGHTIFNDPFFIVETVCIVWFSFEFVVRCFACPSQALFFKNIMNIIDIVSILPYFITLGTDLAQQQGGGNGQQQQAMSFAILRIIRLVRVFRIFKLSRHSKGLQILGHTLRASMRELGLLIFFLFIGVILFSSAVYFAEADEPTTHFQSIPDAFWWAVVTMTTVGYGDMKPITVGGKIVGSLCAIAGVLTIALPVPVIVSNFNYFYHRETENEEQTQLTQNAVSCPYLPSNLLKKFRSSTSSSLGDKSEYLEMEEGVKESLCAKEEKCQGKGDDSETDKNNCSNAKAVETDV
For a further test, the target named is T1, A-type [Kv4.2] (Homo sapiens, UniProt Q9NZV8).
T1 sequence (Q9NZV8 1-630): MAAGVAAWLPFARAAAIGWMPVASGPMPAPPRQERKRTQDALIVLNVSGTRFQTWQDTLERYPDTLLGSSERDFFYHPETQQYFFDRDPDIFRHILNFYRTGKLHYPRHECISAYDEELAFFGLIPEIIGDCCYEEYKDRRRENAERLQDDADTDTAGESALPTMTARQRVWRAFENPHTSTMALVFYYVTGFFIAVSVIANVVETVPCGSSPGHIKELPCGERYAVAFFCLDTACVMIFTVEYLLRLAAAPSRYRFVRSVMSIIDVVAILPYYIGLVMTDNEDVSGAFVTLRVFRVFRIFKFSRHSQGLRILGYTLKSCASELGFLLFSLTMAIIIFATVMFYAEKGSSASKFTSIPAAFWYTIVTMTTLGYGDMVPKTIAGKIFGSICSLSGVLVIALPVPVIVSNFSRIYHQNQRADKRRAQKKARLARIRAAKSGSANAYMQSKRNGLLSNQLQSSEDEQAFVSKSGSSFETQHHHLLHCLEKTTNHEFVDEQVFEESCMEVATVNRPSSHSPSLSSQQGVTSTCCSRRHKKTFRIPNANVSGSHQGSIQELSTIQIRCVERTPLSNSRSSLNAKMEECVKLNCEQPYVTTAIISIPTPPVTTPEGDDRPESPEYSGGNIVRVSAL
The note with it: 300 μM; A-type [Kv4.2] selectively expressed in xenopus oocytes; cited from earlier work.

The next test deals with T2, HCN1 (Homo sapiens, UniProt O60741).
T2 sequence (O60741 1-890): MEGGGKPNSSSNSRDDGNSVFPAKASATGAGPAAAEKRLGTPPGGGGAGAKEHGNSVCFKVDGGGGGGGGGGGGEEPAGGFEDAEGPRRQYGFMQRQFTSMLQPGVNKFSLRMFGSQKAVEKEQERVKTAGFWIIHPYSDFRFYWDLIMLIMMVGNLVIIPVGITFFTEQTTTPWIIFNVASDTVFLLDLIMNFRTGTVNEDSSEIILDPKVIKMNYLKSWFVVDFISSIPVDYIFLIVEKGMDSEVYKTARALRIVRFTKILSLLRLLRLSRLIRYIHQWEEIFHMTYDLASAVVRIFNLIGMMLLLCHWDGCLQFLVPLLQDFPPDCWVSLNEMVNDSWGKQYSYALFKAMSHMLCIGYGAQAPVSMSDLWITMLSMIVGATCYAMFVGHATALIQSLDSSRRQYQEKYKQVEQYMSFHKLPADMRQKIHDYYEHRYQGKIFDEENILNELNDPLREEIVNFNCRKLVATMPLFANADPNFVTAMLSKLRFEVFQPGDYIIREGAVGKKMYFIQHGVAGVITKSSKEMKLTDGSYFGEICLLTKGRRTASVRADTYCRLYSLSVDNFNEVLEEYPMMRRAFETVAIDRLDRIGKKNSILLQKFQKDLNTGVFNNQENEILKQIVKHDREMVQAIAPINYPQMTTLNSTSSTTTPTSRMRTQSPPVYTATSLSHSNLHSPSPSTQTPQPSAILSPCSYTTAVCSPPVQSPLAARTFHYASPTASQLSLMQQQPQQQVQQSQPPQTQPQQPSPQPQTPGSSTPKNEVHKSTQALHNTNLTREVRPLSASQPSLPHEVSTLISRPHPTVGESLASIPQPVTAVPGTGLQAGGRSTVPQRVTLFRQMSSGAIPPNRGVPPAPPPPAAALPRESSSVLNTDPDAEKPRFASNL
The following applies: 50 μM; HCN1 selectively expressed in HEK293 cells; cited from earlier work.

Another test deals with T3, HCN2 (Homo sapiens, UniProt Q9UL51).
T3 sequence (Q9UL51 1-889): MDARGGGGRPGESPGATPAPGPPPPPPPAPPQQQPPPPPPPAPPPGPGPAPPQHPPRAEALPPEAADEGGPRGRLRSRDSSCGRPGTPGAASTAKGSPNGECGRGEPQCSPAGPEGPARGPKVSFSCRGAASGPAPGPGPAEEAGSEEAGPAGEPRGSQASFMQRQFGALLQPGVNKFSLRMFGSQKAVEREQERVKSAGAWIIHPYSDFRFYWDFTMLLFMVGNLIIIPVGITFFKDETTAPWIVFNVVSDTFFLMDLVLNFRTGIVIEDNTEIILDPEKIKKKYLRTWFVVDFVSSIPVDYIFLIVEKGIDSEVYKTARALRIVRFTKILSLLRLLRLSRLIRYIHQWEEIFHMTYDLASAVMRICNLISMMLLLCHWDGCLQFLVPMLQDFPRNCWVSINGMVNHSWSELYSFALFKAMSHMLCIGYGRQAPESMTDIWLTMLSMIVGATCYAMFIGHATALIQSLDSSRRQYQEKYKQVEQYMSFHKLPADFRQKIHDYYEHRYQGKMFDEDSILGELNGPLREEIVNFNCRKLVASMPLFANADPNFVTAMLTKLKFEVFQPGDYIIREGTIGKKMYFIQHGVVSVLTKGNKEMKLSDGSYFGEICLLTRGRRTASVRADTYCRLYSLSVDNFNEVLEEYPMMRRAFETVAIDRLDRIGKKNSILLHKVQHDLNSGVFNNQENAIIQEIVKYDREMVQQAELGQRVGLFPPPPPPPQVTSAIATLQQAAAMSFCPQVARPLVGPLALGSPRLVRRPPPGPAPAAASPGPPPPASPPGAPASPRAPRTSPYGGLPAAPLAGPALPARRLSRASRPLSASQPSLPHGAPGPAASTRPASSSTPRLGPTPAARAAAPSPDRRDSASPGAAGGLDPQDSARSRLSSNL
The note with it: 50 μM; HCN2 selectively expressed in xenopus oocytes; cited from earlier work.

The target of the next test is T4, BK ion channel (Homo sapiens, UniProt Q12791).
T4 construct: endogenous in cells; host or cells: hippocampal CA1 neuron
T4 sequence (Q12791 whole entry): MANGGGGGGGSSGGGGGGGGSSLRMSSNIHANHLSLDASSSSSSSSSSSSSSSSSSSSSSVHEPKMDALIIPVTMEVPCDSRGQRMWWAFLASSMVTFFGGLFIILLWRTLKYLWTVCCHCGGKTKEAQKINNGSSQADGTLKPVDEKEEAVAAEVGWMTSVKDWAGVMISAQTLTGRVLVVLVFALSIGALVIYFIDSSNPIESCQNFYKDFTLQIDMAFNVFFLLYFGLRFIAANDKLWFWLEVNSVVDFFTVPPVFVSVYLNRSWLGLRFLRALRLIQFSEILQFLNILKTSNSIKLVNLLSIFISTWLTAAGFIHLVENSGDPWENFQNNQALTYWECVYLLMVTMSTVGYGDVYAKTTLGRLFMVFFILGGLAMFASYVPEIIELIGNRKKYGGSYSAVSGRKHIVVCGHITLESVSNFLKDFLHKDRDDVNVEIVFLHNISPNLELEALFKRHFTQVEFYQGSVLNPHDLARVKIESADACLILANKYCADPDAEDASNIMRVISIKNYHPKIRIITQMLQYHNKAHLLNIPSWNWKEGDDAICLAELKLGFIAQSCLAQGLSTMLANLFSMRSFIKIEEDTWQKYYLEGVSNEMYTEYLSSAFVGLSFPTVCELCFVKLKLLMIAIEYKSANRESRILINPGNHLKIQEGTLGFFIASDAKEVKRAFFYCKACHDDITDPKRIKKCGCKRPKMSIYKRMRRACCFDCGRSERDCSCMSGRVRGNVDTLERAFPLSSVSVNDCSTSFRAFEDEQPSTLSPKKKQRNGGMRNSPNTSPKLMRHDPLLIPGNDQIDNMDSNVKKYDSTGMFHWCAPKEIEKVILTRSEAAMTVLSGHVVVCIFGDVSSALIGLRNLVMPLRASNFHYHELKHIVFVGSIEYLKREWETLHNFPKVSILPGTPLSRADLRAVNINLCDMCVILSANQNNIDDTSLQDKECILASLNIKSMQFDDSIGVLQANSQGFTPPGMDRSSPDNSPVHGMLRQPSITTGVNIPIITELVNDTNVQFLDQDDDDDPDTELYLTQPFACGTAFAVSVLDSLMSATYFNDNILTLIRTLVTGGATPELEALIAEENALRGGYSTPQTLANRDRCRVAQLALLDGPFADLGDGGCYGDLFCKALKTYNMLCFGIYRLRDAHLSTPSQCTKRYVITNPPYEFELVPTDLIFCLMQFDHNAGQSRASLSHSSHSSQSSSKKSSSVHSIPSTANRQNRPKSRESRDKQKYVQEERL
In words: Data assimilation of CA1 neuron current clamp recordings: predicted charge through BK channel before and after drug. The class given is cell-based, rodent.

The test system of the next test is SK ion channel. In words: Data assimilation of CA1 neuron current clamp recordings: predicted charge through SK channel before and after drug. Format: cell-based, rodent. The note with it: 100 nM IbTX, 2000 ms prediction window, FIG. 12A.
A further test deals with NaT ion channel. In words: Data assimilation of CA1 neuron current clamp recordings: predicted charge through NaT channel before and after drug. The class given is cell-based, rodent. The following applies: 100 nM IbTX, 2000 ms prediction window, FIG. 12A.
A further test deals with K ion channel. In words: Data assimilation of CA1 neuron current clamp recordings: predicted charge through K channel before and after drug. Format: cell-based, rodent. The note with it: 100 nM IbTX, 2000 ms prediction window, FIG. 12A.
Another test addresses BK [α subunit only] (Homo sapiens, UniProt Q12791). The following applies: 100 nM; BK [α subunit only] selectively expressed in HEK293 cells; cited from earlier work.
For a further test, the target named is BK [α + β1] (Homo sapiens, UniProt Q12791). The note with it: 100 nM; BK [α + β1] selectively expressed in HEK293 cells; cited from earlier work.
Sequence of BK [α + β1] (Q12791 whole entry): as above
Sequence of BK [α + β1] (Q16558 whole entry partner): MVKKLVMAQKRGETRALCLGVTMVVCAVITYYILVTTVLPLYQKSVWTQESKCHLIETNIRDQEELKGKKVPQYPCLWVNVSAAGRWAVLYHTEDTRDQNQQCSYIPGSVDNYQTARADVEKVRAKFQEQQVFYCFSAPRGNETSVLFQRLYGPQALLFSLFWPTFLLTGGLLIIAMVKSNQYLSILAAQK
The target in a further test is BK [α + β3] (Homo sapiens, UniProt Q12791). The note with it: 100 nM; BK [α + β3] selectively expressed in HEK293 cells; cited from earlier work.
Sequence of BK [α + β3] (Q12791 whole entry): as the sequence (Q12791 whole entry) above
Sequence of BK [α + β3] (Q9NPA1 whole entry partner): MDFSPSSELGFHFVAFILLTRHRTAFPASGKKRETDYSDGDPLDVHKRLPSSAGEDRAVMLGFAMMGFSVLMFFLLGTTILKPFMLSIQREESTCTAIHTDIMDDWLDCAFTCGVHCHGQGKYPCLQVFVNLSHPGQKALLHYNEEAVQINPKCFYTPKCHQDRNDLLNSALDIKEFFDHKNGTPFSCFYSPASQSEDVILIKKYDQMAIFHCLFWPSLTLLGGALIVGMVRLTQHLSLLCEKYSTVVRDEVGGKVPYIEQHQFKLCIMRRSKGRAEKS
A further test addresses BK [α + β4] (Homo sapiens, UniProt Q12791). The following applies: 100 nM; BK [α + β4] selectively expressed in HEK293 cells; cited from earlier work.

Sequence of BK [α + β4] (Q12791 whole entry): as the sequence (Q12791 whole entry) above
Sequence of BK [α + β4] (Q86W47 whole entry partner): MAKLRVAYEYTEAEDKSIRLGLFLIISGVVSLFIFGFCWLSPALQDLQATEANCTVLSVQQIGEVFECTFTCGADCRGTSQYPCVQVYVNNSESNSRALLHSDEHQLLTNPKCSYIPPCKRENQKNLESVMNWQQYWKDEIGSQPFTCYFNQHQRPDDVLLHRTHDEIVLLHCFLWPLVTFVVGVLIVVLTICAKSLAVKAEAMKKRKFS
Sequence of BK [α subunit only] (Q12791 whole entry): as the sequence (Q12791 whole entry) above

On to `Nc1ccncc1` [4-AP, 4-aminopyridine], for which, in the test with A-type K+ ion channel (300 μM applied, A-type K+ current, CA1 neuron, mean), the “MEAN PREDICTED INHIBITION (Results)” value is 19.0%. Moreover, the “MEDIAN PREDICTED INHIBITION (Results)” value in the test on A-type K+ ion channel (300 μM applied, A-type K+ current, CA1 neuron, median) is 24.3%. For the same compound, the “EXPECTED DEGREE OF BLOCK AT APPLIED CONCENTRATION” value is listed as ~25% on A-type [Kv1.4] and ~13% on A-type [Kv4.2].
As to `CCN(c1ccccc1)c1cc(=NC)n(C)c(C)n1.Cl` [ZD 7288], the “EXPECTED DEGREE OF BLOCK AT APPLIED CONCENTRATION” value on HCN1 is listed as ~63%; on HCN2, ~80%.
Turning to “Iberiotoxin (QFTDVDCSVSKECWSVCKDLFGVDRGKCMGKKCRCYQ; UniProt P24663 1-37, looked up)”, the “Effect on total predicted charge (spike normalised), pre- vs post-drug” value in the test with BK ion channel (100 nM IbTX, BK ion channel, 2000 ms prediction window, FIG. 12A, 12D) is reported as “does have a noticeable effect”; with SK ion channel it was “does not have a visible effect”; in the test with A-type K+ ion channel (100 nM IbTX, A-type K+ ion channel, 2000 ms prediction window, FIG. 12A), “does not have a visible effect”; with NaT ion channel, “does not have a visible effect”; in the test with K ion channel, “does not have a visible effect”. Besides, in the test with BK ion channel (100 nM applied, BK current, CA1 neuron, mean), the “MEAN PREDICTED INHIBITION (Results)” value is given as 14.8%. The “MEDIAN PREDICTED INHIBITION (Results)” value with BK ion channel (100 nM applied, BK current, CA1 neuron, median) is recorded as 12.1%. The “EXPECTED DEGREE OF BLOCK AT APPLIED CONCENTRATION” value is listed as 86% with BK [α subunit only], 12% with BK [α + β1], 77% with BK [α + β3] and “Insensitive” with BK [α + β4].
